Here are results for 19 molecules from PMC12366332 (Applied and Environmental Microbiology, 2025).

pEC50: −log10 of the molar value. Read-outs that look alike come from different tables or passages of the source. Ends that are not written are not given here. Peptide text beside a SMILES is read from it. * marks the point of attachment. Hexanoyl = CCCCCC(=O)*

The subject of one data set is tobacco leaves. The note with it: 150 µM; after 48 h.
Data set [1] concerns X. fastidiosa subsp. fastidiosa IVIA 5387.2. Conditions: for pEC50: 3 h.
The test system of the next data set is horse erythrocytes. Conditions: red cells of horse, 50 µM.
The subject of the next data set is E. coli 0111:B4 LPS. In kind it is biochemical, Escherichia coli.

The pEC50 is −log10 of the EC50, conventionally taken in molar units. High values mean a low EC50, low ones a high EC50.

On to `CCCCCC(=O)NCCCC[C@H](NC(=O)[C@@H](NC(=O)[C@H](CCCCN)NC(=O)[C@H](CCCCN)NC(=O)[C@H](Cc1ccccc1)NC(=O)[C@H](CC(C)C)NC(=O)[C@H](CCCCN)NC(=O)[C@H](CCCCN)NC(C)=O)[C@@H](C)CC)C(=O)N[C@@H](CCCCN)C(=O)N[C@@H](Cc1ccc(O)cc1)C(=O)N[C@@H](CC(C)C)C(N)=O` [BP375, Ac-KKLFKKIK(COC5H11)KYL-NH2] (Ac-KKLFKKIK(Hexanoyl)KYL-NH2), for which, in the data set with tobacco leaves, the “Phytotoxicity: diameter of the lesion” value worked out at 10 mm. In addition, the “Bactericidal activity Reduction in viability (Log N0/N)” value in data set [1] (50 µM) is given as 1,37 Log N0/N. Besides, in the data set with horse erythrocytes, the “Hemolytic activity (%)” value stood at 23%.
`CCCCCC(=O)NCCCC[C@H](NC(=O)[C@H](CCCCN)NC(=O)[C@H](CC(C)C)NC(=O)[C@@H](NC(=O)[C@H](CCCCN)NC(=O)[C@H](CCCCN)NC(=O)[C@H](Cc1ccccc1)NC(=O)[C@H](CC(C)C)NC(=O)[C@H](CCCCN)NC(=O)[C@H](CCCCN)NC(C)=O)[C@@H](C)CC)C(=O)N[C@@H](CC(C)C)C(N)=O` [BP377, Ac-KKLFKKILKK(COC5H11)L-NH2] (Ac-KKLFKKILKK(Hexanoyl)L-NH2): the “Phytotoxicity: diameter of the lesion” value in the data set on tobacco leaves turned out to be 11 mm. Besides, the “Bactericidal activity Reduction in viability (Log N0/N)” value in data set [1] (3.1 µM) was 1,34 Log N0/N; in data set [1] (12.5 µM) it was 1,88 Log N0/N. Besides, in data set [1] (50 µM), the “Bactericidal activity Level” value is “Very High (key: Very High: very high bactericidal activity (>2.5 log); High: high bactericidal activity (between 2.0 and 2.5 log); Moderate: a moderate activity (between 1.5 and 2.0 log); Low: low active (<1.5 log))”. Also, in data set [1], the pEC50 was 5.44. Further, the “Hemolytic activity (%)” value in the data set with horse erythrocytes is reported as 71%.
As for `CCCC(=O)NCCCC[C@H](NC(=O)[C@@H](NC(=O)[C@H](CCCCN)NC(=O)[C@H](CCCCN)NC(=O)[C@H](Cc1ccccc1)NC(=O)[C@H](CC(C)C)NC(=O)[C@H](CCCCN)NC(=O)[C@H](CCCCN)NC(C)=O)[C@@H](C)CC)C(=O)N[C@@H](CCCCN)C(=O)N[C@@H](Cc1ccc(O)cc1)C(=O)N[C@@H](CC(C)C)C(N)=O` [BP387, Ac‐KKLFKKIK(COC3H7)KYL‐NH2], the “Phytotoxicity: diameter of the lesion” value in the data set on tobacco leaves was 8 mm. In data set [1] (12.5 µM), the “Bactericidal activity Reduction in viability (Log N0/N)” value was 0,83 Log N0/N. In data set [1] (50 µM), the “Bactericidal activity Level” value is “Moderate (key: Very High: very high bactericidal activity (>2.5 log); High: high bactericidal activity (between 2.0 and 2.5 log); Moderate: a moderate activity (between 1.5 and 2.0 log); Low: low active (<1.5 log))”; the “Bactericidal activity Reduction in viability (Log N0/N)” value was 1,96 Log N0/N. Further, in the data set on horse erythrocytes, the “Hemolytic activity (%)” value came to 4%.
Consider `CCCCCCCCCCCC(=O)NCCCC[C@H](NC(=O)[C@H](CCCCN)NC(C)=O)C(=O)N[C@@H](CC(C)C)C(=O)N[C@@H](Cc1ccccc1)C(=O)N[C@@H](CCCCN)C(=O)N[C@@H](CCCCN)C(=O)N[C@H](C(=O)N[C@@H](CC(C)C)C(=O)N[C@@H](CCCCN)C(=O)N[C@@H](Cc1ccc(O)cc1)C(=O)N[C@@H](CC(C)C)C(N)=O)[C@@H](C)CC` [BP393, Ac-KK(COC11H23)LFKKILKYL-NH2], for which the “Phytotoxicity: diameter of the lesion” value with tobacco leaves was 6 mm. Also, the “Bactericidal activity Level” value in data set [1] (50 µM) was “High (key: Very High: very high bactericidal activity (>2.5 log); High: high bactericidal activity (between 2.0 and 2.5 log); Moderate: a moderate activity (between 1.5 and 2.0 log); Low: low active (<1.5 log))”. In addition, in data set [1], the negative logarithm of the EC50 (pEC50) is 4.70.
On to `CC[C@H](C)[C@H](NC(=O)CN)C(=O)NCC(=O)N[C@@H](C)C(=O)N[C@H](C(=O)N[C@@H](CC(C)C)C(=O)N[C@@H](CCCCN)C(=O)N[C@H](C(=O)N[C@@H](CC(C)C)C(=O)N[C@H](C(=O)N[C@H](C(=O)NCC(=O)N[C@@H](CC(C)C)C(=O)N1CCC[C@H]1C(=O)N[C@@H](C)C(=O)N[C@@H](CC(C)C)C(=O)N[C@H](C(=O)N[C@@H](CO)C(=O)N[C@@H](Cc1c[nH]c2ccccc12)C(=O)N[C@H](C(=O)N[C@@H](CCCCN)C(=O)N[C@@H](CCCNC(=N)N)C(=O)N[C@@H](CCCCN)C(=O)N[C@@H](CCCNC(=N)N)C(=O)N[C@@H](CCC(N)=O)C(=O)N[C@@H](CCC(N)=O)C(N)=O)[C@@H](C)CC)[C@@H](C)CC)[C@@H](C)O)[C@@H](C)O)C(C)C)C(C)C` [Melittin, reference compound], for which the “Phytotoxicity: diameter of the lesion” value in the data set on tobacco leaves is recorded as 10 mm.
As to Ac-LKLFKKILKVL-NH2 [BP022], the “LPS neutralization Ratio (treatment/NTC)” value in the data set with E. coli 0111:B4 LPS is on record as 0,61. Also, in data set [1] (50 µM), the “Bactericidal activity Level” value is “Moderate (key: Very High: very high bactericidal activity (>2.5 log); High: high bactericidal activity (between 2.0 and 2.5 log); Moderate: a moderate activity (between 1.5 and 2.0 log); Low: low active (<1.5 log))”; the “Bactericidal activity Reduction in viability (Log N0/N)” value is 1,87 Log N0/N.
Turning to CF-KKLfKK(COC3H7)ILKYL-NH2 [BP473-CF], the “Bactericidal activity Reduction in viability (Log N0/N)” value in data set [1] was 0,91 Log N0/N.
Take FKLFKKILKVL-NH2 [BP013]: in the data set on E. coli 0111:B4 LPS, the “LPS neutralization Ratio (treatment/NTC)” value is 1,13. Moreover, the “Bactericidal activity Reduction in viability (Log N0/N)” value in data set [1] (50 µM) was 1,03 Log N0/N.
In the case of KKLFKKILKFL-NH2 [BP076], in the data set with E. coli 0111:B4 LPS, the “LPS neutralization Ratio (treatment/NTC)” value is 0,36. In data set [1] (50 µM), the “Bactericidal activity Reduction in viability (Log N0/N)” value was 0,91 Log N0/N.
Consider KKLFKKILKKL-NH2 [BP016], for which the “LPS neutralization Ratio (treatment/NTC)” value in the data set with E. coli 0111:B4 LPS is listed as 1,13. Also, the “Bactericidal activity Reduction in viability (Log N0/N)” value in data set [1] (50 µM) is on record as 0,00 Log N0/N.
Taken in the same sequence, the figures for KKLFKKILKVL-NH2 [BP015] were 1,10 and 1,13 Log N0/N.
On to KKLFKKILKYL-NH2 [BP100], for which the “LPS neutralization Ratio (treatment/NTC)” value with E. coli 0111:B4 LPS was 0,34. Also, in data set [1] (50 µM), the “Bactericidal activity Level” value was “Moderate (key: Very High: very high bactericidal activity (>2.5 log); High: high bactericidal activity (between 2.0 and 2.5 log); Moderate: a moderate activity (between 1.5 and 2.0 log); Low: low active (<1.5 log))”; the “Bactericidal activity Reduction in viability (Log N0/N)” value was 1,92 Log N0/N.
Turning to KKLFKkILKYL-NH2 [BP146], in the data set with E. coli 0111:B4 LPS, the “LPS neutralization Ratio (treatment/NTC)” value is reported as 0,73. The “Bactericidal activity Reduction in viability (Log N0/N)” value in data set [1] (50 µM) is on record as 1,25 Log N0/N.
In the case of KKLfKKILKYL-NH2 [BP143], the “LPS neutralization Ratio (treatment/NTC)” value with E. coli 0111:B4 LPS is 0,70. In addition, the “Bactericidal activity Reduction in viability (Log N0/N)” value in data set [1] (50 µM) was 0,89 Log N0/N.
For KKVVFWVKFk-NH2 [BP442], the “LPS neutralization Ratio (treatment/NTC)” value in the data set on E. coli 0111:B4 LPS is on record as 0,76. In data set [1] (50 µM), the “Bactericidal activity Level” value is “Low (key: Very High: very high bactericidal activity (>2.5 log); High: high bactericidal activity (between 2.0 and 2.5 log); Moderate: a moderate activity (between 1.5 and 2.0 log); Low: low active (<1.5 log))”; the “Bactericidal activity Reduction in viability (Log N0/N)” value is reported as 1,09 Log N0/N.
As to KKlFKKILKYL-NH2 [BP144], the “LPS neutralization Ratio (treatment/NTC)” value in the data set on E. coli 0111:B4 LPS is given as 1,07. The “Bactericidal activity Reduction in viability (Log N0/N)” value in data set [1] (50 µM) is 0,68 Log N0/N.
With KkLFKKILKYL-NH2 [BP145], the “LPS neutralization Ratio (treatment/NTC)” value in the data set on E. coli 0111:B4 LPS is 0,76. In addition, in data set [1] (50 µM), the “Bactericidal activity Reduction in viability (Log N0/N)” value was 1,08 Log N0/N.
For “RKVRGPP-NH2 [Lf(28-34), RKVRGPP-NH2, reference compound]”, the “Phytotoxicity: diameter of the lesion” value with tobacco leaves was 0 mm. Besides, the “Hemolytic activity (%)” value in the data set with horse erythrocytes stood at 1%.
As to c(LLKKKWKKLQ) (cyclic) [BPC098W], the “LPS neutralization Ratio (treatment/NTC)” value with E. coli 0111:B4 LPS is on record as 0,83. Further, in data set [1] (50 µM), the “Bactericidal activity Level” value was “Low (key: Very High: very high bactericidal activity (>2.5 log); High: high bactericidal activity (between 2.0 and 2.5 log); Moderate: a moderate activity (between 1.5 and 2.0 log); Low: low active (<1.5 log))”; the “Bactericidal activity Reduction in viability (Log N0/N)” value is recorded as 0,78 Log N0/N.
